Here are results for seven molecules from article PMC3566115, “Interaction Domain of Glycoproteins gB and gH of Marek's Disease Virus and Identification of an Antiviral Peptide with Dual Functions” (PLoS ONE, 2013).

“And” between values parts separate entries of the source, which are not always exact repeats. Identical values can stand only once. “Also recorded” adds a separate entry of the source. Like-named read-outs stand apart in the source and are kept apart here. Where no end group is shown, it is not given here.

For data set [1], the target named is gB-derived HR1 peptide (gBH1) (Marek's disease virus strain RB1B). The experiment in a line: SEC. A general note: SEC sorts molecules by how far they enter the pores of the column.
Sequence of gB-derived HR1 peptide (gBH1) (Marek's disease virus strain RB1B) (P18538 340-367 limits assumed): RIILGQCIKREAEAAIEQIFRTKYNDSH
In data set [2] the target is gH-derived HR3 peptide (gHH3) (Marek's disease virus strain RB1B). Description: SEC.
Data set [3] has the same target. The experiment in a line: SEC. This is another data set of the same source.
For data set [4] the target is unchanged.
The subject of data set [5] is MDV strain RB1B. It is filed as cell-based, Marek's disease virus. The following applies: for IC50: plaque formation, CEF cells, co-treatment: 100 pfu MDV incubated with peptide 2 hrs at 37°C, then 5 days in DMEM 2% FBS, triplicate, means ± SD, read-out: antiviral activity IC50; for virucidal activity (in words): virus pre-treatment: virus incubated with peptide at 25 μM for 1 hr at 37°C, then titrated on cell monolayers. How it is done: Primary chicken embryo fibroblasts (CEFs) were cultured as previously described. CEF-associated MDV strain RB1B,which was obtained from the Shandong Agriculture University and passaged multiple times in primary CEFs was incubated for 2 hrs at 37°C. Following incubation, the virus inoculum on the cells was replaced with DMEM supplemented with 2% FBS, and the cultures were incubated for another 5 days longer Consistent and uniform plaques were observed and counted using an Olympus microscope, and images were captured using DP Controller. CEF-associated MDV from the same passage at 2×10^4 plaque forming units (pfu) was used in both infectivity assays in this study.
All peptides were dissolved in DMEM without FBS and used at a range of concentrations. For the antiviral activities of peptides in the co-treatment assay, 100 pfu of MDV was incubated with the peptide at different concentrations for 2 hrs at 37°C. Following incubation, the virus-peptide mixtures on the cells were replaced with DMEM supplemented with 2% FBS, and the cultures were incubated for 5 days. At the end of this period, 50% inhibitory concentrations (IC50) values were calculated. […] For all treatments, unpenetrated virus was inactivated in a low pH buffer after the 45 min incubation with cells at 37°C. The monolayers were incubated for 5 days at 37°C in DMEM supplemented with 2% FBS. The ratio of plaque counts to the no peptide sample control is reported as the percentage of plaque formation (by arithmetic conversion of the mean percent plaque formation). The results are expressed as the average of triplicates ± the standard deviation, and all experiments were performed in parallel with each peptide and a non-specific peptide (i.e., scramble).

For data set [6], the system named is MDV strain RB1B. The following applies: cited from earlier work; for IC50: MDV plaque formation, previous study, read-out: 50% inhibitory concentration (IC50), plaque formation. An excerpt: Our previous study reported that both glycoproteins gB and gH of the herpesvirus Marek's disease virus (MDV) contain eleven potential heptad repeat domains. […] HR1 and HR2 can form of a six-helix bundle structure, which is known as the virus fusion central core and is believed to bring the viral and cellular membranes closer together. […] This observation is in contrast with our results with MDV and other herpesviruses, [29], [33], in which three N-terminal HRs show ...

The conditions of data set [7]: individual peptides; previous study; cited from earlier work. An excerpt: In addition, the gBH1 peptide forms a homotrimeric structure with a molecular weight of 10.7 kDa. gHH3 adopts a monomer formation with a molecular weight of 3.8 kDa, and gHH1 forms a homotetramer with a molecular weight of approximately 12.1 kDa. Gel filtration was used to confirm the interactions between peptides. […] As show ...

As a reminder, the stoichiometry N is a count of units in the complex or per binding partner. On to gH-derived HR1 peptide (gHH1), for which the stoichiometry N in data set [1] worked out at 1; in data set [2], 3; in data set [3], 1.
For the molecule gB-derived HR1 peptide (gBH1), the antiviral activity IC50 (plaque formation, MDV on CEF cells) of the mixture of the three peptides gHH1+gHH3+gBH1, the same level as gHH1 alone in data set [4] was 4.7 µM. Further, the stoichiometry N was found to be 1 in data set [2] and 3 in data set [3].
For “NADIIKSLIRKTIINASKNTASLSILQHLYVLRS [gHH3]”, in the data set on MDV strain RB1B [5], the IC50 came out at 12.2 ± 0.28 µM and the “virucidal activity (in words)” value was “no or low virucidal activity”. Moreover, the IC50 with MDV strain RB1B [6] is below 12 µM. For the same molecule, in data set [7], the “Molecular mass of individual peptide in solution by gel filtration” value (shortened to “Molecular mass of individual peptide”) was 3.8 kDa and the “Molecular state of individual peptide” value is given as “Monomer”.
Consider HMNASDMEIKSYINMIESVEESSNYDF [gHH1], for which, in the data set with MDV strain RB1B [5], the IC50 was 4.1 ± 0.26 µM and the “virucidal activity (in words)” value is “no or low virucidal activity”. Also, the IC50 with MDV strain RB1B [6] was below 12 µM. Further, the “blocking of viral infection in co-treatment and post-treatment assays (in words)” value in the data set with MDV strain RB1B [6] (virus co-treatment (co) and post-treatment (post)) is given as “blocked viral infection”. Further, in data set [7], the “Molecular mass of individual peptide” value is “approximately 12.1 kDa and 12.1 kDa”; the “Molecular state of individual peptide” value is listed as “homotetramer; also recorded: Tetramer”.
For “KKNEEIIKKLEEKTKKNEEKNKKSEEILKKLEELRKK [gHH3-EK]”, in the data set with MDV strain RB1B [5], the IC50 was found to be 6.3 ± 1.16 µM.
The same measure, in the same setting: next, “EERKKLGEEIKKEAEEAKKQIEETKKNDEE [gHB1-EK]”: 8.7 ± 1.29 µM.
As for `CC[C@H](C)[C@H](NC(=O)[C@H](C)NC(=O)[C@H](C)NC(=O)[C@H](CCC(=O)O)NC(=O)[C@H](C)NC(=O)[C@H](CCC(=O)O)NC(=O)[C@H](CCCNC(=N)N)NC(=O)[C@H](CCCCN)NC(=O)[C@@H](NC(=O)[C@H](CS)NC(=O)[C@H](CCC(N)=O)NC(=O)CNC(=O)[C@H](CC(C)C)NC(=O)[C@@H](NC(=O)[C@@H](NC(=O)[C@@H](N)CCCNC(=N)N)[C@@H](C)CC)[C@@H](C)CC)[C@@H](C)CC)C(=O)N[C@@H](CCC(=O)O)C(=O)N[C@@H](CCC(N)=O)C(=O)N[C@H](C(=O)N[C@@H](Cc1ccccc1)C(=O)N[C@@H](CCCNC(=N)N)C(=O)N[C@H](C(=O)N[C@@H](CCCCN)C(=O)N[C@@H](Cc1ccc(O)cc1)C(=O)N[C@@H](CC(N)=O)C(=O)N[C@@H](CC(=O)O)C(=O)N[C@@H](CO)C(=O)N[C@@H](Cc1c[nH]cn1)C(=O)O)[C@@H](C)O)[C@@H](C)CC` [gBH1], the IC50 in the data set with MDV strain RB1B [6] was below 12 µM. Moreover, in data set [7], the “Molecular mass of individual peptide” value was 10.7 kDa and the “Molecular state of individual peptide” value was “homotrimeric; also recorded: Trimer”.
